Results from ChEMBL document CHEMBL4229345, “Inhibition of trypanosome alternative oxidase without its N-terminal mitochondrial targeting signal (ΔMTS-TAO) by cationic and non-cationic 4-hydroxybenzoate and 4-alkoxybenzaldehyde derivatives active against T. brucei and T. congolense” (Eur J Med Chem, 2018).
Activity calls are given as the source filed them. The rule behind the calls is not given here.

Tests used:
[1] = test system: Trypanosoma brucei brucei; experiment: Resistance factor, ratio of EC50 for bloodstream trypomastigote stage of Trypanosoma brucei brucei with AQP2/3-dd knock out to EC50 for bloodstream trypomastigote stage of wild-type Trypanosoma brucei brucei Lister 427; assay type: functional
[2] = test system: Trypanosoma brucei brucei; experiment: Anti-parasitic activity against bloodstream trypomastigote stage of wild-type Trypanosoma brucei brucei Lister 427 after 48 hrs by resazurin-based assay; assay type: functional, organism-based; conditions: Lister 427, 48 h
[3] = test system: Trypanosoma brucei brucei; experiment: Resistance factor, ratio of EC50 for bloodstream trypomastigote stage of Trypanosoma brucei brucei AQP triple knock out to EC50 for bloodstream trypomastigote stage of wild-type Trypanosoma brucei brucei Lister 427; assay type: functional
[4] = test system: Trypanosoma brucei brucei; experiment: Anti-parasitic activity against bloodstream trypomastigote stage of wild-type Trypanosoma brucei brucei Lister 427 after 48 hrs in presence of 5 mM glycerol by resazurin-based assay; assay type: functional, organism-based; conditions: Lister 427, 48 h
[5] = Stability in mouse serum assessed as compound hydrolysis after 24 hrs by LC/MS analysis; assay type: ADME, cell-free; conditions: read-out: Drug degradation
[6] = test system: Trypanosoma brucei; experiment: Anti-parasitic activity against bloodstream trypomastigote stage of pentamidine/diminazene/melaminophenyl arsenical resistant Trypanosoma brucei B48 after 48 hrs by resazurin-based assay; assay type: functional, organism-based; conditions: B48, 48 h
[7] = Selectivity index, ratio of CC50 for HFF cells to EC50 for bloodstream form of Trypanosoma congolense IL3000; assay type: toxicity; conditions: human, read-out: Ratio CC50/EC50
[8] = Competitive inhibition of recombinant N-terminal His6 tagged SUMO-fused Trypanosoma brucei brucei TC221 TAO MTS deletion mutant expressed in Escherichia coli FN102 preincubated for 2 mins followed by ubiquinol-1 addition measured over 2 mins by Lineweaver-Burk plot analysis
[9] = Half life in mouse serum by LC/MS analysis; assay type: ADME, cell-free
[10] = Inhibition of recombinant N-terminal His6 tagged SUMO-fused Trypanosoma brucei brucei TC221 TAO MTS deletion mutant expressed in Escherichia coli FN102 preincubated for 2 mins followed by ubiquinol-1 addition measured over 2 mins by double beam-dual wavelength UV-spectrophotometry
[11] = test system: Trypanosoma brucei brucei; experiment: Anti-parasitic activity against bloodstream trypomastigote stage of Trypanosoma brucei brucei with AQP2/3-dd knock out after 48 hrs by resazurin-based assay; assay type: functional, organism-based
[12] = test system: Trypanosoma brucei brucei; experiment: Anti-parasitic activity against bloodstream trypomastigote stage of Trypanosoma brucei brucei with AQP triple knock out after 48 hrs by resazurin-based assay; assay type: functional, organism-based
[13] = Resistance factor, ratio of EC50 for bloodstream trypomastigote stage of pentamidine/diminazene/melaminophenyl arsenical resistant Trypanosoma brucei B48 to EC50 for bloodstream trypomastigote stage of wild-type Trypanosoma brucei brucei Lister 427; assay type: functional
[14] = test system: Trypanosoma brucei brucei; experiment: Resistance factor, ratio of EC50 for bloodstream trypomastigote stage of wild-type Trypanosoma brucei brucei Lister 427 in presence of 5 mM glycerol to EC50 for bloodstream trypomastigote stage of wild-type Trypanosoma brucei brucei Lister 427; assay type: functional
[15] = Cytotoxicity against HFF cells assessed as reduction in cell viability after 30 hrs by resazurin-based assay; conditions: human
[16] = Selectivity index, ratio of CC50 for HFF cells to EC50 for bloodstream trypomastigote stage of wild-type Trypanosoma brucei brucei Lister 427; assay type: toxicity; conditions: human, read-out: Ratio CC50/EC50
[17] = test system: Trypanosoma congolense; experiment: Anti-parasitic activity against bloodstream form of Trypanosoma congolense IL3000 after 48 hrs by resazurin-based assay; assay type: functional, organism-based; conditions: IL3000, 48 h
[18] = test system: Trypanosoma brucei brucei; experiment: Potency index, ratio of diminazene EC50 to test compound EC50 for anti-parasitic activity against bloodstream trypomastigote stage of wild-type Trypanosoma brucei brucei Lister 427; assay type: functional
[19] = Stability in mouse serum assessed as compound hydrolysis after 2 hrs by LC/MS analysis; assay type: ADME, cell-free; conditions: read-out: Drug degradation
[20] = Stability in horse serum assessed as compound hydrolysis after 2 hrs by LC/MS analysis; assay type: ADME, cell-free, Equus caballus; conditions: read-out: Drug degradation
[21] = test system: Trypanosoma congolense; experiment: Potency index, ratio of diminazene EC50 to test compound EC50 for anti-parasitic activity against bloodstream form of Trypanosoma congolense IL3000; assay type: functional
[22] = Stability in horse serum assessed as compound receovery after 24 hrs by LC/MS analysis; assay type: ADME, cell-free, Equus caballus; conditions: read-out: Drug recovery
[23] = Drug metabolism in human liver S9 fraction assessed as CYP450 mediated compound hydrolysis by measuring parent compound remaining at 5 uM measured after 30 mins in presence of NADPH by RP-HPLC analysis; assay type: ADME, subcellular; conditions: read-out: Stability
[24] = Drug metabolism in human liver S9 fraction assessed as CYP450 mediated compound hydrolysis by measuring parent compound remaining at 5 uM measured immediately in presence of NADPH by RP-HPLC analysis; assay type: ADME, subcellular; conditions: read-out: Stability
[25] = Drug metabolism in human liver microsomes assessed as CYP450 mediated compound hydrolysis by measuring parent compound remaining at 5 uM measured after 30 mins in presence of NADPH by RP-HPLC analysis; assay type: ADME; conditions: read-out: Stability
[26] = Drug metabolism in human liver S9 fraction assessed as CYP450 mediated compound hydrolysis by measuring parent compound remaining at 5 uM measured after 15 mins in presence of NADPH by RP-HPLC analysis; assay type: ADME, subcellular; conditions: read-out: Stability
[27] = Drug metabolism in human liver microsomes assessed as CYP450 mediated compound hydrolysis by measuring parent compound remaining at 5 uM measured after 120 mins in presence of NADPH by RP-HPLC analysis; assay type: ADME; conditions: read-out: Stability
[28] = Drug metabolism in human liver S9 fraction assessed as CYP450 mediated compound hydrolysis by measuring parent compound remaining at 5 uM measured after 60 mins in presence of NADPH by RP-HPLC analysis; assay type: ADME, subcellular; conditions: read-out: Stability
[29] = Drug metabolism in human liver S9 fraction assessed as UGT mediated compound hydrolysis by measuring parent compound remaining at 5 uM measured after 30 mins in presence of UDPGA by RP-HPLC analysis; assay type: ADME, subcellular; conditions: read-out: Stability
[30] = test system: Trypanosoma brucei rhodesiense; experiment: (§1) In vivo anti-parasitic activity against luciferase tagged Trypanosoma brucei rhodesiense STIB900 infected in NMRI mouse assessed as reduction in parasitemia at 10 mg/kg, ip for 4 consecutive days starting at day 3 post infection and measured after last treatment on day 7 (reference value: 0%); assay type: functional; design: scale not given: the % may be the effect or the level left
[31] = Drug metabolism in human liver S9 fraction assessed as CYP450 mediated compound hydrolysis by measuring parent compound remaining at 5 uM measured after 120 mins in presence of NADPH by RP-HPLC analysis; assay type: ADME, subcellular; conditions: read-out: Stability
[32] = Stability in horse serum assessed as compound hydrolysis after 24 hrs by LC/MS analysis; assay type: ADME, cell-free, Equus caballus; conditions: read-out: Drug degradation
[33] = test system: Trypanosoma brucei rhodesiense; experiment: as §1, with “measured 3 days hrs” for “measured”, “10” for “7”; assay type: functional; design: scale not given: the % may be the effect or the level left
[34] = Drug metabolism in human liver microsomes assessed as CYP450 mediated compound hydrolysis by measuring parent compound remaining at 5 uM measured after 60 mins in presence of NADPH by RP-HPLC analysis; assay type: ADME; conditions: read-out: Stability
[35] = Drug metabolism in human liver microsomes assessed as CYP450 mediated compound hydrolysis by measuring parent compound remaining at 5 uM measured after 15 mins in presence of NADPH by RP-HPLC analysis; assay type: ADME; conditions: read-out: Stability
[36] = Drug metabolism in human liver S9 fraction assessed as UGT mediated compound hydrolysis by measuring parent compound remaining at 5 uM measured immediately in presence of UDPGA by RP-HPLC analysis; assay type: ADME, subcellular; conditions: read-out: Stability
[37] = Drug metabolism in human liver microsomes assessed as CYP450 mediated compound hydrolysis by measuring parent compound remaining at 5 uM measured immediately in presence of NADPH by RP-HPLC analysis; assay type: ADME; conditions: read-out: Stability
[38] = test system: Trypanosoma brucei rhodesiense; experiment: In vivo anti-parasitic activity against luciferase tagged Trypanosoma brucei rhodesiense STIB900 infected in NMRI mouse assessed as cured mouse at 10 mg/kg, ip for 4 consecutive days starting at day 3 post infection; assay type: functional, organism-based
[39] = Drug metabolism in human liver S9 fraction assessed as UGT mediated compound hydrolysis by measuring parent compound remaining at 5 uM measured after 60 mins in presence of UDPGA by RP-HPLC analysis; assay type: ADME, subcellular; conditions: read-out: Stability
[40] = Drug metabolism in human liver S9 fraction assessed as UGT mediated compound hydrolysis by measuring parent compound remaining at 5 uM measured after 15 mins in presence of UDPGA by RP-HPLC analysis; assay type: ADME, subcellular; conditions: read-out: Stability
[41] = Drug metabolism in human liver S9 fraction assessed as UGT mediated compound hydrolysis by measuring parent compound remaining at 5 uM measured after 120 mins in presence of UDPGA by RP-HPLC analysis; assay type: ADME, subcellular; conditions: read-out: Stability
[42] = Cytotoxicity against HEK cells assessed as reduction in cell viability after 30 hrs by resazurin-based assay; conditions: human
[43] = Selectivity index, ratio of CC50 for HEK cells to EC50 for bloodstream form of Trypanosoma congolense IL3000; assay type: toxicity; conditions: human, read-out: Ratio CC50/EC50

Cc1cc(O)ccc1C(=O)OCCCCCCCCCCCCCC[n+]1cccc2ccccc21.[Br-]
Ratio EC50 [1]: 0.47 | EC50 [2]: 210 nM | Ratio EC50 [3]: 0.41 | EC50 [4]: 145 nM | metabolised at 24 h [5]: > 99% | EC50 [6]: 300 nM | selectivity ratio [7]: > 110 | Ki [8]: 52.9 nM | half-life [9]: 30 min | IC50 [10]: 30 nM | EC50 [11]: 100 nM | EC50 [12]: 86 nM | Ratio EC50 [13]: 1.4 | Ratio EC50 [14]: 0.69 | CC50 at 30 h [15]: > 200000 nM | selectivity ratio [16]: > 952 | EC50 [17]: 1820 nM

Cc1cc(O)ccc1C(=O)OCCCCCCCCCCCCCC[P+](c1ccccc1)(c1ccccc1)c1ccccc1.[Br-]
Ratio EC50 [1]: 0.92 | EC50 [2]: 2.4 nM | Ratio EC50 [18]: 5 - 40 | Ratio EC50 [3]: 2 | metabolised at 2 h [19]: 70% | metabolised at 2 h [20]: < 20% | EC50 [4]: 3.2 nM | metabolised at 24 h [5]: > 99% | EC50 [6]: 2.2 nM | selectivity ratio [7]: > 5130 | Ratio EC50 [21]: 5 - 40 | half-life [9]: 60 min | IC50 [10]: 81 nM | EC50 [11]: 2.2 nM | EC50 [12]: 5 nM | Ratio EC50 [13]: 0.9 | Ratio EC50 [14]: 1.32 | CC50 at 30 h [15]: > 200000 nM | selectivity ratio [16]: > 83000 | EC50 [17]: 39 nM

COc1ccc([C@@H]2Sc3ccccc3N(CCN(C)C)C(=O)[C@@H]2OC(C)=O)cc1 [DILTIAZEM]
remaining at 24 h [22]: 1%

Cc1cc(O)cc(O)c1C(=O)OCCCCCCCCCCCCCC[P+](c1ccccc1)(c1ccccc1)c1ccccc1.[Br-]
remaining at 0.5 h, 5 µM [23]: 101% | remaining at 0 min, 5 µM [24]: 100% | remaining at 0.5 h, 5 µM [25]: 86% | Ratio EC50 [1]: 0.51 | remaining at 0.25 h, 5 µM [26]: 92.3% | remaining at 2 h, 5 µM [27]: 93.1% | EC50 [2]: 1.6 nM | Ratio EC50 [18]: 5 - 40 | remaining at 1 h, 5 µM [28]: 96.4% | Ratio EC50 [3]: 0.89 | remaining at 0.5 h, 5 µM [29]: 66.9% | Activity [30]: 94.7% | EC50 [4]: 1.4 nM | remaining at 2 h, 5 µM [31]: 94.1% | metabolised at 24 h [32]: < 30% | Activity [33]: 27.9% | remaining at 1 h, 5 µM [34]: 93.4% | metabolised at 24 h [5]: < 20% | EC50 [6]: 1.9 nM | selectivity ratio [7]: > 40000 | remaining at 0.25 h, 5 µM [35]: 93.4% | Ratio EC50 [21]: 5 - 40 | Ki [8]: 870 nM | IC50 [10]: 88 nM | remaining at 0 min, 5 µM [36]: 100% | EC50 [11]: 0.8 nM | remaining at 0 min, 5 µM [37]: 100% | Activity [38]: inactive | EC50 [12]: 1.4 nM | remaining at 1 h, 5 µM [39]: 58.2% | Ratio EC50 [13]: 1.2 | Ratio EC50 [14]: 0.92 | remaining at 0.25 h, 5 µM [40]: 79.4% | CC50 at 30 h [15]: > 200000 nM | remaining at 2 h, 5 µM [41]: 52.6% | selectivity ratio [16]: > 125000 | EC50 [17]: 5 nM

O=C(OCCCCCCCCCCCCBr)c1ccc(O)cc1O
Ratio EC50 [1]: 0.69 | CC50 at 30 h [42]: > 400000 nM | Ratio EC50 [3]: 0.32 | EC50 [4]: 6200 nM | IC50 [10]: 17.4 nM | EC50 [11]: 10000 nM | EC50 [12]: 4700 nM | Ratio EC50 [13]: 1.03 | Ratio EC50 [14]: 0.42 | selectivity ratio [43]: > 7.7 | selectivity ratio [16]: > 27
